Data published in US20230140290A1, “SALICYLAMIDE DERIVATIVES AND RELATED METHODS OF MAKING” (THE BOARD OF REGENTS OF THE UNIVERSITY OF TEXAS SY, priority 2020, published 2023).
Where “and” joins values, the source holds several entries; their conditions need not be identical. Equal values may be shown once.

How the values were obtained:
HAdV5-GFP [1] = assay: Plaque assay (inhibition of HAdV plaque formation); type: cell-based, HAdV-5; conditions: for Selectivity index (SI): ratio of CC50 to IC50 in plaque assay; for inhibition at 10 µM: read-out: Plaque Assay (%) Inhibition (10 μM)
Summary of the method: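 Cells at 80-90% confluency infected with HAdV5-GFP at 0.06 vp/cell, rocked 2 h at 37° C, then washed with PBS. Compounds tested at 10 μM and in dose-response from 10 to 0.3 μM, included in the post-infection mixture.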

A549 cells = assay: Cytotoxicity assay (AlamarBlue); conditions: read-out: CC50 (μM), cytotoxic concentration 50%; A549 cell line, 48 h
Experimental: (§1) Cytotoxicity Assay. The cytotoxicity of the compounds was analyzed by commercial kit AlamarBlue® (Invitrogen, Ref. DAL1025). A549 cells at a density of 5×10^3 cells per well in 96-well plates were seeded. […] Cells were then incubated at 37° C. for 48 h following the kit protocol. The cytotoxic concentration 50 (CC50) value was obtained using the statistical package GraphPad Prism. This assay was performed in duplicate.

HAdV5-GFP [2] = assay: Entry assay (HAdV5-mediated GFP expression); type: cell-based, HAdV-5; conditions: for inhibition at 50 µM: A549, 48 h, read-out: (%) Inhibition Entry Assay (50 μM)
Experimental: Entry Assay. The anti-HAdV activity was measured in an entry assay using human A549 epithelial cells (3×10^5 cells/well in coming black wall, clear bottom 96-well plates) infected with HAdV5-GFP (2000 vp/cell) in the presence 50 μM of the candidates and in a dose-response assay. A standard infection curve was generated in parallel by infecting cells in the absence of compounds using serial 2-fold dilutions of virus. All reactions were done in triplicate. Cells, virus, and drugs were incubated for 48 h at 37° C. and 5% CO2.

wild-type HAdV5 [3] = assay: Nuclear-associated HAdV genomes (real-time PCR); type: cell-based, HAdV-5
Experimental: (§2) Nuclear-Associated HAdV Genomes. The nuclear delivery of HAdV genomes was assessed by real-time PCR following nuclear isolation from infected cells. […] Forty-five minutes after infection, A549 cells were trypsinized and collected and then washed twice with PBS. Then, cytoplasmic and nuclear fractions were separated using a hypotonic buffer solution and NP-40 detergent. The cell pellet was resuspended in 500 μL of 1×hypotonic buffer (20 mM Tris-HCl pH 7.4, 10 mM NaCl, 3 mM MgCl2) and incubated for 15 min at 4° C. Then, 25 μL of NP-40 was added and the samples were vortexed. The homogenates were centrifuged for 10 min at 835 g at 4° C. Following the removal of the cytoplasmic fraction (supernatant), HAdV DNA was isolated from the nuclear fraction (pellet) and from the cytoplasmic fraction using the QIAamp DNA Mini Kit (QIAGEN, Valencia, Calif.).
as §2, with “E.Z.N.A.® Tissue” for “QIAamp”, “DNA” for “DNA Mini”, “(Omega Bio-tek, Norcross, Ga.).” for “(QIAGEN, Valencia, Calif.).”

wild-type HAdV5 [4] = assay: HAdV DNA quantification by real-time PCR (DNA replication); type: cell-based, HAdV-5; conditions: 24 h
Experimental: DNA Quantification by Real-Time PCR. […] Infected cells were incubated 24 h at 37° C. in 500 μL of complete DMEM containing 25 μM of either compounds or the same volume of DMSO (positive control). All samples were done in duplicate. After 24 h of incubation at 37° C., DNA was purified from the cell lysate with the QIAamp DNA Mini Kit (QIAGEN, Valencia, Calif.) following the manufacturer's instructions. TaqMan primers and probes for a common region of the HAdV5 were designed with the GenScript Real-Time PCR (TaqMan) Primer Design software (GenScript). […] Real-time PCR mixtures consisted of 9.5 μL of the purified DNA, AQ1 and AQ2 at a concentration of 200 nM each and Probe at a concentration of 50 nM in a total volume of 25 μL. The PCR cycling protocol was 95° C. for 3 min followed by 40 cycles of 95° C. for 10 s and 60° C. for 30 s. Human glyceraldehyde-3-phosphate dehydrogenase (GAPDH) gene was used as internal control. Oligonucleotides sequences for GAPDH and conditions were those previously reported by Henke-Gendo et al. (2012).
For quantification, gene fragments from hexon, and GAPDH were cloned into the pGEM-T Easy vector (Promega) and known concentrations of template were used to generate a standard curve in parallel for each experiment. All assays were performed in thermal cycler LightCycler® 96 System (Roche).
(§3) HAdV DNA Quantification by Real-Time PCR. […] All samples were done in duplicate. After 24 h of incubation at 37° C., DNA was purified from the cell lysate with the E.Z.N.A.® Tissue DNA Kit (Omega Bio-tek, Norcross, Ga.) following the manufacturer's instructions. TaqMan primers and probes for a common region of the HAdV5 were designed with the GenScript Real-Time PCR (TaqMan) Primer Design software (GenScript). […] Real-time PCR mixtures consisted of 9.5 μL of the purified DNA, AQ1 and AQ2 at a concentration of 200 nM each and Probe at a concentration of 50 nM in a total volume of 25 μL. The PCR cycling protocol was 95° C. for 3 min followed by 40 cycles of 95° C. for 10 s and 60° C. for 30 s. Human glyceraldehyde-3-phosphate dehydrogenase (GAPDH) gene was used as internal control. Oligonucleotides sequences for GAPDH and conditions were those previously reported by Henke-Gendo et al. (2012).
as §3, with “DNA” for “HAdV DNA”

[5] = Cytotoxicity assay (AlamarBlue); conditions: human, A549 cells
Experimental: as §1

[6] = read-out: Plaque Assay IC50 (μM), HAdV5-GFP, low MOI, 293β5 cell line
[7] = A549, read-out: IC50 Entry Assay (μM), HAdV5-GFP, high MOI, A549 cell line
[8] = FIG. 5A, 45 min post-infection, 10-fold plaque IC50

O=C(Nc1cc(F)cc(C(F)(F)F)c1)c1ccc(Cl)cc1O [Compound 20, 4-Chloro-N-(3-fluoro-5-(trifluoromethyl)phenyl)-2-hydroxybenzamide]
Selectivity index (SI) (HAdV5-GFP [1]): 186.8 | inhibition at 10 µM (HAdV5-GFP [1]): 96.8 ± 1.9% | IC50 (HAdV5-GFP [1]; [6]): 0.11 µM | CC50 (A549 cells): 20.6 µM | inhibition at 50 µM (HAdV5-GFP [2]): 100% | IC50 (HAdV5-GFP [2]; [7]): 0.26 ± 0.09 µM | amount of nuclear-associated HAdV genomes versus DMSO (wild-type HAdV5 [3]; FIG. 3, 45 min post infection, concentrations by CC50 (2-50 μM)): partially inhibited | inhibition of HAdV-5 DNA replication (qPCR) (wild-type HAdV5 [4]; FIG. 4, concentrations by CC50 (2-50 μM)): low inhibition

C[C@@H](NC(=O)c1cc(Cl)ccc1O)c1ccc(F)cc1 [Compound 49, (R)-5-Chloro-N-(1-(4-fluorophenyl)ethyl)-2-hydroxybenzamide]
Selectivity index (SI) (HAdV5-GFP [1]): 57.8 and 66.2 | inhibition at 10 µM (HAdV5-GFP [1]): 100% | IC50 (HAdV5-GFP [1]; [6]): 3.02 µM | CC50 at 48 h [5]: > 200 µM

CC(C)(NC(=O)c1cc(Cl)ccc1O)c1ccc(F)cc1 [Compound 51, 5-Chloro-N-(2-(4-fluorophenyl)propan-2-yl)-2-hydroxybenzamide]
Selectivity index (SI) (HAdV5-GFP [1]): 39.1 and 57.8 | inhibition at 10 µM (HAdV5-GFP [1]): 100% | IC50 (HAdV5-GFP [1]; [6]): 3.46 µM | CC50 at 48 h [5]: > 200 µM

O=C(Nc1ccc(NCc2ccc(O)cc2)cc1Cl)c1cc(Cl)ccc1O [Compound 101, 5-Chloro-N-(2-chloro-4-((4-hydroxybenzyl)amino)phenyl)-2-hydroxybenzamide]
Selectivity index (SI) (HAdV5-GFP [1]): 104.1 | inhibition at 10 µM (HAdV5-GFP [1]): 80.7 ± 9.1% | IC50 (HAdV5-GFP [1]; [6]): 1.11 µM | CC50 (A549 cells): 116 µM | inhibition at 50 µM (HAdV5-GFP [2]): 83.3% | IC50 (HAdV5-GFP [2]; [7]): 15.2 to 30.8 µM | IC50 (HAdV5-GFP [2]; {}): 25 ± 6.9 µM | amount of nuclear-associated HAdV genomes versus DMSO (wild-type HAdV5 [3]; [8]): significant reductions | inhibition of HAdV-5 DNA replication (qPCR) (wild-type HAdV5 [4]; FIG. 6A, 10-fold plaque IC50): low inhibition

O=C(Nc1ccc(NCc2ccncc2)cc1Cl)c1cc(Cl)ccc1O [Compound 108, 5-Chloro-N-(2-chloro-4-((pyridin-4-ylmethyl)amino)phenyl)-2-hydroxybenzamide]
IC50 (HAdV5-GFP [1]; HAdV5-GFP, low MOI, 293β5 cell line, read-out: Plaque Assay IC50): 1.66 to 4.78 µM | Selectivity index (SI) (HAdV5-GFP [1]): 24.6 | inhibition at 10 µM (HAdV5-GFP [1]): 100% | IC50 (HAdV5-GFP [1]; {}): 2.66 ± 0.17 µM | CC50 at 48 h [5]: 65.3 to 126 µM | CC50 (A549 cells): 65.3 ± 5.7 µM

O=C(Nc1ccc(NCc2cccnc2Cl)cc1Cl)c1cc(Cl)ccc1O [Compound 109, 5-Chloro-N-(2-chloro-4-(((2-chloropyridin-3-yl)methyl)amino)phenyl)-2-hydroxybenzamide]
Selectivity index (SI) (HAdV5-GFP [1]): 21.0 | inhibition at 10 µM (HAdV5-GFP [1]): 100% | CC50 at 48 h [5]: 65.3 to 126 µM | CC50 (A549 cells): 100 ± 29.8 µM

O=C(Nc1ccc(NCc2ccc(O)nc2)cc1Cl)c1cc(Cl)ccc1O [Compound 112, 5-Chloro-N-(2-chloro-4-(((6-hydroxypyridin-3-yl)methyl)amino)phenyl)-2-hydroxybenzamide]
Selectivity index (SI) (HAdV5-GFP [1]): 126.3 | inhibition at 10 µM (HAdV5-GFP [1]): 100% | IC50 (HAdV5-GFP [1]; [6]): 0.78 µM | CC50 (A549 cells): 98.5 µM | inhibition at 50 µM (HAdV5-GFP [2]): 51.7 ± 9.8% | IC50 (HAdV5-GFP [2]; [7]): > 50 µM | amount of nuclear-associated HAdV genomes versus DMSO (wild-type HAdV5 [3]; [8]): significant reductions | inhibition of HAdV-5 DNA replication (qPCR) (wild-type HAdV5 [4]; FIG. 6A, 10-fold plaque IC50): low inhibition

CC(C)(CCO)Nc1ccc(NC(=O)c2cc(Cl)ccc2O)c(Cl)c1 [Compound 118, 5-Chloro-N-(2-chloro-4-((4-hydroxy-2-methylbutan-2-yl)amino)phenyl)-2-hydroxybenzamide]
Selectivity index (SI) (HAdV5-GFP [1]): 188.3 | inhibition at 10 µM (HAdV5-GFP [1]): 92.3% | IC50 (HAdV5-GFP [1]; [6]): 0.9 µM | CC50 (A549 cells): 170 ± 4.2 µM | inhibition at 50 µM (HAdV5-GFP [2]): 42.1 ± 3% | IC50 (HAdV5-GFP [2]; [7]): > 50 µM | amount of nuclear-associated HAdV genomes versus DMSO (wild-type HAdV5 [3]; [8]): no significant differences | inhibition of HAdV-5 DNA replication (qPCR) (wild-type HAdV5 [4]; FIG. 6A, 10-fold plaque IC50): low inhibition

CC(CCO)Nc1ccc(NC(=O)c2cc(Cl)ccc2O)c(Cl)c1 (stereo not shown) [Compound 119, 5-Chloro-N-(2-chloro-4-((4-hydroxybutan-2-yl)amino)phenyl)-2-hydroxybenzamide]
Selectivity index (SI) (HAdV5-GFP [1]): 166.7 | inhibition at 10 µM (HAdV5-GFP [1]): 96.9 ± 2.4% | IC50 (HAdV5-GFP [1]; [6]): 1.2 µM | CC50 (A549 cells): 200 µM | inhibition at 50 µM (HAdV5-GFP [2]): 88.6% | amount of nuclear-associated HAdV genomes versus DMSO (wild-type HAdV5 [3]; [8]): no significant differences | inhibition of HAdV-5 DNA replication (qPCR) (wild-type HAdV5 [4]; FIG. 6A, 10-fold plaque IC50): low inhibition

Nc1ccn(C[C@@H](CO)OCP(=O)(O)O)c(=O)n1 [cidofovir, reference compound]
Selectivity index (SI) (HAdV5-GFP [1]): 7.5 | IC50 (HAdV5-GFP [1]; [6]): 24.1 ± 5.9 µM | CC50 at 48 h [5]: 50.1 ± 9.8 µM
